Tested on: Rats with Septic Shock
Assay: Survival of Sprague-Dawley rats in septic shock model (peritonitis)
Type: in vivo
Settings: Table XIV, septic shock + antibiotic (gentamicin sulfate, 1 mg/rat) alone, 10 rats at 0 hr
Excerpt: Using a septic shock model in rats (Sprague-Dawley, male, 200-225 g each), the effect of thymosin β4 alone and together with antibiotics was studied. Peritonitis was induced in rats in the following way. A 1-cm incision was made into the peritoneal which exposed the cecum. A tight ligature was placed around the cecum with 4-0 suture distal to the insertion of the small bowel, forming an area of devitalized tissue while maintaining bowel continuity. A puncture wound was made with 16-gauge needle into the anti-mesenteric surface of the cecum and a small amount of fecal contents was expressed through the wound. The cecum was replaced into the peritoneal cavity, and the anterior peritoneal wall and skin were closed with surgical staples. Each animal was given a bolus of normal saline (15 ml/kg) for hydration and allowed to recover overnight.

gentamicin sulfate [antibiotic, reference compound]
Survival of rats (number alive) (24 hr): 1 | Survival of rats (number alive) (48 hr): 1 | Survival of rats (number alive) (72 hr): 0
